Measurements from patent publication US5112815A, “9α-hydroxy-3-oxo-4,24(25)-stigmastadien-26-oic acid derivatives, a process for preparing same and pharmaceutical compositions containing same” (Richer Gedeon Vegyeszet, priority 1989, dated 1992).

Tests used:
serum cholesterol = details: several animal species and humans, literature; cited from earlier work
[1] = test system: cholesterol biosynthesis (rat liver homogenate); experiment: Inhibition of cholesterol biosynthesis: incorporation of radiolabelled acetic acid into cholesterol in rat liver homogenate; format: biochemical, Hannover Wistar male rats; details: 2 h at 37° C.
From the text: The cholesterol-biosynthesis-inhibiting effect of the compounds according to the invention is illustrated by the example of 9 α-hydroxy-3-oxo-4,24(25)-stigmastadien-26-oic acid (I, wherein M stands for hydrogen). The inhibitory effect of this compound was compared with that of 3β-hydroxy-5α-cholest-8(14)-en-15-one (Colestolone) by the method of A. Endo and co-workers [Eur. J. Biochem. 77, 31 (1977); Biochem. Biophys. Acta 486, 71 (1977)] studying in rat liver homogenate the incorporation of radiolabelled acetic acid into cholesterol.
Hannover Wistar male rats weighing 50-60 g were used for the experiment. Before the experiments the animals were fed for a week with rat chew enriched with 5% cholestyramine, in a reversed light cycle (light from 4 p.m. to 4 a.m., and dark from 4 a.m. to 4 p.m.). The food and water were available ad libitum.
The animals were decapitated on the day of the experiment, Livers were immersed in ice cold Krebs/Ringer bicarbonate buffer (pH 7.4) and cut into small pieces. Using a tissue homogenizer in a gentle mode of operation we prepared a crude liver homogenate of which a portion equivalent to 100 mg of wet liver was weighed into glass-stoppered tubes. The operations were carried out under constant cooling. The incubation mixture included the liver homogenate, the Krebs/Ringer bicarbonate buffer, the sodium-(1-^14 C)acetate (supplied by IZINTA; specific activity: 14.86 MBq/mg) and the (^3 H)cholesterol oleate (supplied by Du Pont; specific activity: 3067 GBq/mmole). The steroids inhibiting cholesterol biosynthesis were added to the incubation mixture in an alcoholic solution containing albumin, as described by G. J. Schroepfer and co-workers [J. Biol. Chem. 24, 8975 (1977)]. The final volume of the incubation mixture was 2.0 ml. Incubation went on for 2 hours in a water bath of 37° C., then 2 ml of alcohol containing 15% (w/v) of KOH were added to the mixture, which was then kept at 70°-75° C. for further 2 hours. The lipids were extracted from the alkaline mixture by petroleum ether. After evaporation of the solvent in nitrogen stream the dry residue was dissolved in a mixture of acetone and ethanol, then the cholesterol was precipitated by a solution of digitonin. The precipitate was centrifuged and dissolved in scintillation cocktail. The activity was measured for 5 minutes using a Hitachi scintillation spectrometer.

Row | SMILES | serum cholesterol-lowering effect (serum cholesterol) | Inhibition, % ([1]; concentration 2.5 μM) | Inhibition, % ([1]; concentration 10.0 μM)
1 | CC(C)CCC[C@@H](C)[C@H]1CC(=O)C2=C3CC[C@H]4C[C@@H](O)CC[C@]4(C)[C@H]3CC[C@@]21C [3β-Hydroxy-5α-cholest-8(14)-en-15-one, 3β-hydroxy-5α-cholest-8(14)-en-15-one] | significant serum cholesterol-lowering effect | 16.6% | 55.0%
2 | CCC(CC[C@@H](C)[C@H]1CC[C@H]2[C@@H]3CCC4=CC(=O)CC[C@]4(C)[C@@]3(O)CC[C@]12C)=C(C)C(=O)O [9α-hydroxy-3-oxo-4,24(25)-stigmastadien-26-oic acid] |  | 65.3% | 86.3%
